# Measured values from patent US10227349B2, “Pyrazolo[1,5-a]pyrimidine compound” (Eisai R&D Management Co., Ltd., priority 2016, dated 2019).
# What was measured:
# PAR2 = molecular target: T1, PAR2 (Homo sapiens, UniProt P55085); experiment: Intracellular calcium concentration measurement (trypsin-induced calcium elevation, FDSS6000); assay type: cell-based; conditions: HEK293 cells, trypsin 5 U/mL as agonist, test compound added 30 min before measurement; read-out: Inhibitory activity on intracellular calcium elevation (IC50 (nM))
# T1 construct: Human embryonic kidney cell line HEK293 cells cultured using DMEM culture medium; endogenous in cells; host or cells: HEK293
# T1 sequence (P55085 26-397): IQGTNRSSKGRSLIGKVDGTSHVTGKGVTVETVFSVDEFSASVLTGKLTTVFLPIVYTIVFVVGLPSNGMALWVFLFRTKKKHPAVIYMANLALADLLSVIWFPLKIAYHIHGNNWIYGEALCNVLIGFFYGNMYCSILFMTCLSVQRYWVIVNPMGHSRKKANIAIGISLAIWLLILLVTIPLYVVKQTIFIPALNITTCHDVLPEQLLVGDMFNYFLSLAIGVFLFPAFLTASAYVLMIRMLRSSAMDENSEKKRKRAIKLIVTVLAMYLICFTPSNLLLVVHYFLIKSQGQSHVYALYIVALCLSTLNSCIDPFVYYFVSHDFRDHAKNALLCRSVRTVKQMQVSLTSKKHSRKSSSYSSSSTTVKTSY
# Excerpt: In the present specification, examples of the measurement method for the PAR2 inhibitory activity include measurement method for a concentration elevation of intracellular calcium; measurement method for a production increase of intracellular inositol trisphosphate; measurement method for an increase in intracellular protein phosphorylation by protein kinase C and MAP kinase; and measurement method for a production amount or a release amount of inflammation-related physiologically active substances such as cytokine, chemokine, prostaglandin and nitric monoxide. Examples of the measurement method for an elevation of intracellular calcium concentration include a method wherein a calcium-binding fluorescent probe is allowed to be incorporated in advance into a cultured cell line or an animal-derived isolated cell having PAR2, or a cell in which PAR2 is artificially expressed, a protease having the PAR2 activity function such as trypsin or a PAR2 agonist (synthetic peptides such as SLIGKV-NH2 (SEQ ID NO: 1) and SLIGRL-NH2 (SEQ ID NO: 2) is added to activate PAR2 whereby fluctuating intracellular calcium concentrations are detected as changes in the fluorescent signal. Alternatively, it is also possible to measure an intracellular calcium concentration by determining the quantity of a fluorescence intensity produced in proportion to the calcium concentration using a calcium-binding luminescent protein overexpressing cell line such as Aequorin. Specifically, examples include the methods described in Test Examples of the present specification.
# Human embryonic kidney cell line HEK293 cells cultured using DMEM culture medium (Invitrogen) with 3% fetal bovine serum (3% FBS)-added was prepared to have a concentration of 2×10^5 cells/mL, and plated in a type I collagen-coated 384-well black plate (clear bottom) (Greiner) so as to be 25 μL/well and cultured in a CO2 incubator overnight. FLIPR Calcium Assay Kit (Molecular Devices) prepared with Hanks-20 mM Hepes buffer (pH 7.4) was added to the cells so as to be 25 μL/well and cultured in the CO2 incubator for 1 hour. Trypsin (SIGMA-ALDRICH, catalog number: T8816, Enzyme Commission Number 3.4.21.4) prepared so as to be 5 U/mL as final concentration (BAEE unit) with Hanks-20 mM Hepes buffer (pH 7.4) was added to a 384-well deep well polypropylene plate (Greiner) to be an agonist reagent plate. Thirty minutes before the measurement using FDSS6000 (Hamamatsu Photonics K.K.), a test compound prepared with Hanks-20 mM Hepes buffer (pH 7.4) was added to the cell so as to be 8 μL/well. The cell plate to which the test compound was added and the reagent plate were set on FDSS6000, 22 μL/well of the agonist solution was added from the reagent plate, and the change in intracellular calcium concentration was measured with a CCD camera. The measurement was carried out at 37° C. for 120 seconds and the addition of reagent from the reagent plate to the cell plate was carried out using a built-in 384-well automatic dispenser of FDSS6000.
# Note that Reference Example 1 in Table 3 is the compound represented by formula (XIX) synthesized in the above Reference Example 1 (hereinafter, also referred to as Compound (XIX)). Additionally, the “Comparative Compound” in Table 3 is the compound described in Patent Literature 4 represented by the following formula (XX) (I-343; hereinafter, also referred to as Compound (XX)).
# [1] = tested on: tape stripping-induced skin barrier disruption in Hos: HR-1 mice; experiment: Mouse model of skin barrier disruption induced by tape stripping (TEWL); assay type: in vivo; conditions: TEWL 0 and 1 hour after stripping, average ± standard deviation, n=10
# Description: The effect of the test compounds on the skin barrier functions was evaluated using a model with skin barrier disruption induced by tape stripping. Trans-epidermal water loss (TEWL) is an evaluation indicator of the skin barrier functions (Journal of Investigative Dermatology, 126, p 2074-2086 (2006)).
# Seven-week old male Hos: HR-1 mice (Hoshino Laboratory Animals, Inc.) were subjected to the test (n=10 for each treatment). For oral administration, solutions of test compounds with different concentrations were prepared as follows. […]
# (2) The solution of the test compound prepared in (1) was diluted with a 0.5% methylcellulose solution to prepare a solution of the test compound so that the concentration of the test compound was 0.3 mg/mL. TEWL was measured before the test compound was administered (termed as TEWL [pre]). After the TEWL [pre] was measured, the solution of the test compound adjusted as in (1) or (2) was administered orally (dose: 10 mL/kg). […] TEWL immediately after and 1 hour after the tape stripping were measured (termed as TEWL [0 hour], TEWL [1 hour], respectively), % Barrier recovery was calculated in accordance with the following formula. % Barrier Recovery={(TEWL [0 hour]−TEWL [1 hour])/(TEWL [0 hour]−TEWL [pre])}*100
# The result was expressed as the average ± standard deviation of the % barrier recovery. […]
SMILES,IC50 (PAR2),% Barrier recovery ([1]; 3 mg/kg orally 1 hour before tape stripping),"% Barrier recovery ([1]; 10 mg/kg orally 1 hour before tape stripping, p < 0.05 versus Vehicle)"
"CO[C@H]1CN(C(=O)c2cc3nc(-c4cc(F)c(Cl)c(F)c4)cc(N(C)c4c(C)cccc4F)n3n2)CC[C@H]1CC(=O)O [Example 10, 2-((3R,4S)-1-(5-(4-chloro-3,5-difluorophenyl)-7-((2-fluoro-6-methylphenyl)(methyl)amino)pyrazolo[1,5-a]pyrimidine-2-carbonyl)-3-methoxypiperidin-4-yl)acetic acid]",3.46 nM,24.2 ± 8.1%,53.5 ± 4.9 %
"C[C@@H](c1ccccc1)N(C)c1cc(-c2cc(F)c(F)c(F)c2)nc2cc(C(=O)N3CCC(CC(=O)O)CC3)nn12 [Reference Example 1, (S)-2-(1-(7-(methyl(1-phenylethyl)amino)-5-(3,4,5-trifluorophenyl)pyrazolo[1,5-a]pyrimidine-2-carbonyl)piperidin-4-yl)acetic acid, reference compound]",8.27 nM,,
